The test deals with 624824-186-R-J3-PDC multicell spheroids, viability. The experiment in a line: Anticancer human tumor 624824-186-R-J3-PDC patient-derived colon adenocarcinoma cell line growth inhibition [PI3K]. The following applies: for viability, T/C: stronger effect = lower value. The procedure, abridged: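 Viability of mixed-cell spheroids was determined after exposure to pairwise combinations, one partner being inavolisib, alpelisib, duvelisib or copanlisib. Highest tested concentration matched clinical Cmax where known and 10 microM where not, descending in half-log steps.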

Setting [1] is: curve of first compound, second compound 0.0316 µM.
Setting [2] is: curve of first compound, second compound 0.1 µM.
Setting [3] is: curve of first compound, second compound 0.316 µM.
[4] abbreviates: curve of first compound, second compound 1 µM.
Setting [5] is: curve of first compound, second compound 3.16 µM.
Setting [6] is: curve of first compound, second compound 10 µM.
[7] abbreviates: second compound 0.0316 µM, first compound 0.0316 µM.
[8] abbreviates: second compound 0.0316 µM, first compound 0.1 µM.
Setting [9] is: second compound 0.1 µM, first compound 0.0316 µM.
Where [10] appears, read: second compound 0.1 µM, first compound 0.1 µM.
[11] abbreviates: second compound 0.316 µM, first compound 0.0316 µM.
Where [12] appears, read: second compound 0.316 µM, first compound 0.1 µM.
[13] abbreviates: second compound 1 µM, first compound 0.0316 µM.
Setting [14] is: second compound 1 µM, first compound 0.1 µM.
Setting [15] is: second compound 3.16 µM, first compound 0.0316 µM.
Setting [16] is: second compound 3.16 µM, first compound 0.1 µM.
[17] abbreviates: second compound 10 µM, first compound 0.0316 µM.
[18] abbreviates: second compound 10 µM, first compound 0.1 µM.

Where “and” joins values, the source holds several entries; their conditions need not be identical. Identical values can stand only once.
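Further: spheroids exposed to agents for seven days before luminescence read.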
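Wherever viability, T/C is given: luminescent signal used as a stand-in for spheroid viability; percent viability relative to DMSO vehicle control wells taken as 100%.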

Turning to `CC(C)n1nc(-c2ccc3oc(N)nc3c2)c2c(N)ncnc21` + Cc1nc(NC(=O)N2CCCC2C(N)=O)sc1-c1ccnc(C(C)(C)C(F)(F)F)c1, the IC50 reads like this: under setting [1], over 0.1 µM; under setting [2], 0.0984 µM; under setting [3], 0.0787 µM; under setting [4], 0.0644 µM; under setting [5], 0.0286 µM; under setting [6], 0.0155 µM. The viability, T/C (second compound 0.0316 µM, first compound 0.000316 µM) was 110%; the viability, T/C (second compound 0.0316 µM, first compound 0.001 µM) is 104%; the viability, T/C (second compound 0.0316 µM, first compound 0.00316 µM) was 112%; the viability, T/C (second compound 0.0316 µM, first compound 0.01 µM) is 99.1%; the viability, T/C under setting [7] is 91.3%; the viability, T/C under setting [8] is 53.3%. For the same compound, the viability, T/C reads like this: (second compound 0.1 µM, first compound 0.000316 µM) 103%; (second compound 0.1 µM, first compound 0.001 µM) 101%; (second compound 0.1 µM, first compound 0.00316 µM) 101%; (second compound 0.1 µM, first compound 0.01 µM) 110%; under setting [9], 97.8%; under setting [10], 48.9%. Further, the viability, T/C runs as follows: (second compound 0.316 µM, first compound 0.000316 µM) 108%; (second compound 0.316 µM, first compound 0.001 µM) 101%; (second compound 0.316 µM, first compound 0.00316 µM) 105%; (second compound 0.316 µM, first compound 0.01 µM) 100%; under setting [11], 89.2%; under setting [12], 40%. For the same compound, the viability, T/C (second compound 1 µM, first compound 0.000316 µM) was 104%; the viability, T/C (second compound 1 µM, first compound 0.001 µM) was 105%; the viability, T/C (second compound 1 µM, first compound 0.00316 µM) was 97.2%; the viability, T/C (second compound 1 µM, first compound 0.01 µM) is 91.3%; the viability, T/C under setting [13] was 77%; the viability, T/C under setting [14] is 34%. Besides, the viability, T/C is, setting by setting: (second compound 3.16 µM, first compound 0.000316 µM) 87.3%; (second compound 3.16 µM, first compound 0.001 µM) 94.6%; (second compound 3.16 µM, first compound 0.00316 µM) 89.5%; (second compound 3.16 µM, first compound 0.01 µM) 72.9%; under setting [15], 48.5%; under setting [16], 30.4%. In addition, the viability, T/C (second compound 10 µM, first compound 0.000316 µM) was 67.5%; the viability, T/C (second compound 10 µM, first compound 0.001 µM) is 68.4%; the viability, T/C (second compound 10 µM, first compound 0.00316 µM) was 68.1%; the viability, T/C (second compound 10 µM, first compound 0.01 µM) was 52.8%; the viability, T/C under setting [17] was 42%; the viability, T/C under setting [18] was 25.7%.
Consider `C=CC(=O)N1CCN(c2nc(=O)n(-c3c(C)ccnc3C(C)C)c3nc(-c4c(O)cccc4F)c(F)cc23)C(C)C1` (stereo not given), for which the viability, T/C is 103% [middle of 4 runs] (compound 0.0316 µM); 94.8% [middle of 4 runs] (compound 0.1 µM); 103% [middle of 4 runs] (compound 0.316 µM); 94.3% [middle of 4 runs] (compound 1 µM); 104% [middle of 4 runs] (compound 3.16 µM); 106% and 108% (3×) (compound 10 µM). The IC50 (curve of compound) is over 10 µM.
As to `CC(=O)c1c(C)c2cnc(Nc3ccc(N4CCNCC4)cn3)nc2n(C2CCCC2)c1=O`, the viability, T/C was 101% [middle of 4 runs] (compound 0.000316 µM); 103% [middle of 4 runs] (compound 0.001 µM); 104% [middle of 4 runs] (compound 0.00316 µM); 98.7% [middle of 4 runs] (compound 0.01 µM); 108% [middle of 4 runs] (compound 0.0316 µM); 105% [middle of 4 runs] (compound 0.1 µM). For the same compound, where the note is “curve of compound”, the IC50 was over 0.1 µM.
Consider `CC1(C)CCC(CN2CCN(c3ccc(C(=O)NS(=O)(=O)c4ccc(NCC5CCOCC5)c([N+](=O)[O-])c4)c(Oc4cnc5[nH]ccc5c4)c3)CC2)=C(c2ccc(Cl)cc2)C1` + CC(Nc1ncnc2nc[nH]c12)c1cc2cccc(Cl)c2c(=O)n1-c1ccccc1, for which the IC50 by setting is: under setting [1], 7.77 µM; under setting [2], 7.33 µM; under setting [3], 8.72 µM; under setting [4], 7.87 µM; under setting [5], 8.48 µM; under setting [6], 9 µM. Also, the viability, T/C is, setting by setting: under setting [7], 112%; under setting [8], 94.8%; (second compound 0.0316 µM, first compound 0.316 µM) 116%; (second compound 0.0316 µM, first compound 1 µM) 96.7%; (second compound 0.0316 µM, first compound 3.16 µM) 106%; (second compound 0.0316 µM, first compound 10 µM) 34.5%. Besides, the viability, T/C is, setting by setting: under setting [9], 103%; under setting [10], 92.4%; (second compound 0.1 µM, first compound 0.316 µM) 91.4%; (second compound 0.1 µM, first compound 1 µM) 90.1%; (second compound 0.1 µM, first compound 3.16 µM) 111%; (second compound 0.1 µM, first compound 10 µM) 32.5%. Moreover, the viability, T/C by setting is: under setting [11], 110%; under setting [12], 114%; (second compound 0.316 µM, first compound 0.316 µM) 108%; (second compound 0.316 µM, first compound 1 µM) 106%; (second compound 0.316 µM, first compound 3.16 µM) 117%; (second compound 0.316 µM, first compound 10 µM) 41.6%. The viability, T/C runs as follows: under setting [13], 97.9%; under setting [14], 111%; (second compound 1 µM, first compound 0.316 µM) 112%; (second compound 1 µM, first compound 1 µM) 99.2%; (second compound 1 µM, first compound 3.16 µM) 117%; (second compound 1 µM, first compound 10 µM) 35%. Moreover, the viability, T/C reads like this: under setting [15], 109%; under setting [16], 97.2%; (second compound 3.16 µM, first compound 0.316 µM) 102%; (second compound 3.16 µM, first compound 1 µM) 111%; (second compound 3.16 µM, first compound 3.16 µM) 125%; (second compound 3.16 µM, first compound 10 µM) 40.1%. For the same compound, the viability, T/C reads like this: under setting [17], 88.6%; under setting [18], 95.3%; (second compound 10 µM, first compound 0.316 µM) 94.6%; (second compound 10 µM, first compound 1 µM) 93.8%; (second compound 10 µM, first compound 3.16 µM) 108%; (second compound 10 µM, first compound 10 µM) 45.3%.
`C#Cc1c(F)ccc2cc(O)cc(-c3ncc4c(N5CC6CCC(C5)N6)nc(OCC56CCCN5CC(F)C6)nc4c3F)c12` (stereo not given): the viability, T/C runs as follows: (compound 0.0316 µM) 120% and 98.2% and 102% (2×); (compound 0.1 µM) 105% and 102% (2×) and 101%; (compound 0.316 µM) 101% [middle of 4 runs]; (compound 1 µM) 101% [middle of 4 runs]; (compound 3.16 µM) 108% [middle of 4 runs]; (compound 10 µM) 107% [middle of 4 runs]. Besides, the IC50 (curve of compound) is over 10 µM.

What is called IC50 is the concentration at which inhibition is half-maximal. A word on the viability, T/C: it is the result in the treated group divided by that in the control group, in per cent.

(Values after PubChem BioAssay AID1963977 (Molecular Pharmacology Branch, DTP, NCI, 2024).)
